Measurements: patent publication US20260224563A1, “CRYSTALLINE FORMS OF 6-(3-((5-CHLORO-2-METHOXYPYRIDINE)-3-SULFONAMIDO)-2,6-DIFLUOROPHENYL)-N-METHYLIMIDAZO[1,5-A]PYRAZINE-1-CARBOXAMIDE AND METHODS FOR USING THE SAME” (HIBERCELL, INC., priority 2023, published 2026)
Read-outs that look alike come from different tables or passages of the source.

Assay: Multicenter, open-label, Phase 1a/b study of HC-7366 in subjects with advanced solid tumors (safety, PK)
Format: in vivo
Details: for AUC(0-t) / Vd/F / Tmax / Cmax / half-life / % AUCextrap / CL/F / DAUC0-24 / DAUC0-last / DAUC0-∞ / DCmax / tlast / LR / AUC / AUC(0-inf): human; for AUC(0-t) / Vd/F / Tmax / Cmax / half-life / AUC / AUC(0-inf): plasma; for AUC(0-t) / Vd/F / Tmax / Cmax / half-life: po; for Vd/F: read-out: Vz/F; for LR: linearity ratio; for AUC: read-out: AUC0-τ
Source text: Identify the maximum tolerated dose (MTD) and/or recommended Phase 2 dose (RP2D) of HC-7366, and evaluate the safety, tolerability, and dose-limiting toxicities (DLTs) of HC-7366 using Form III of the potassium salt of the compound of formula (I) (see Example 6, also referred to within this example as HC-7366-K), in subjects with advanced solid tumors, including: • a. occurrence of DLTs • b. incidence and severity of treatment-emergent adverse events (TEAEs) and treatment related TEAEs according to National Cancer Institute Common Terminology Criteria for Adverse Events (NCI CTCAE) v 5.0 • c. incidence of TEAEs leading to premature discontinuation • d. incidence of laboratory abnormalities, based on NCI CTCAE grades of hematology, serum chemistry, and urinalysis test results • e. incidence of abnormalities observed in 12 lead ECG parameters • f. incidence of abnormalities observed in vital signs measurements
Determine plasma concentration and pharmacokinetic (PK) parameters following treatment with HC-7366 using Form III of the potassium salt of the compound of formula (I) (see Example 6, also referred to within this example as HC-7366-K).
Preliminarily assess the potential antitumor activity of HC-7366 in terms of response rate, disease stabilization, and survival outcomes by assessing: • a. Overall response rate (ORR) to HC-7366 using response evaluation criteria in solid tumors (iRECIST) • b. Duration of response (DOR) to HC-7366 using iRECIST • c. Time to treatment failure (TTF) • d. Progression free survival (PFS) using iRECIST • e. Overall survival (OS)
This is a first in human, multicenter, open label, Phase 1a and 1b dose-escalation and dose-expansion study to establish the maximum tolerated dose, recommended Phase 2 dose, and evaluate the safety and tolerability of QD oral dosing of HC 7366 in a dose escalating fashion in subjects with advanced solid tumors. Up to 40 subjects were enrolled into the Phase 1a dose-escalation part of the study. The study was conducted in the United States at approximately 7 to 10 sites.
Every effort was made to ensure approximately 50% of all subjects enrolled into Phase 1a of this study are subjects with the tumors of special interest including squamous cell carcinoma of the head and neck, colorectal cancer, non-small cell lung cancer, and transitional cell carcinoma of the bladder. […] All subjects in Phase 1b enrolled with clear cell renal cell carcinoma. The Phase 1a study followed a traditional 3+3 design. The starting dose level was 10 mg QD, escalating to 20, 40, 75, 125, and 150 mg QD as safety allows. All doses were administered in the fasting state with water at least 1 hour before food or at least 2 hours after food.
The Phase 1b dose-expansion was at a single dose level of 75 mg based on the safety, tolerability, PK/PD results from Phase 1a to obtain additional safety and preliminary efficacy information. Up to 30 subjects were enrolled in the Phase 1b portion of the study at the 75 mg dose. Replacement patients were enrolled as necessary. Subjects were dosed until unacceptable toxicity, disease progression per immune-related Response Evaluation Criteria in Solid Tumors, discontinuation of treatment for other protocol allowed reason (eg, subject refusal), any other administrative reasons, or after 2 years of treatment, whichever occurs first.
For scheduling purposes, dosing in Phase 1a and 1b occurred in 3 week cycles and computed tomography scans were conducted once every 6 weeks from Cycle 1/Day 1, with the first postbaseline scan after 6 weeks of dosing (precycle 3) until confirmed disease progression, death, start of new anticancer therapy, withdrawal of consent, or end of study, whichever occurs first.
Subjects of Phase 1a and 1b spent Cycle 1/Day 1 (C1D1) in the clinic followed by an optional overnight stay for safety monitoring and PK sampling. Subjects were hospitalized (optional) for administration of the first 2 doses: C1D1 and Cycle 1/Day 2 (C1D2). […]

[1] = 75 mg, multiple once daily oral 75 mg (N = 7), Cycle 1 Day 21, geometric mean
[2] = 75 mg, single oral dose 75 mg (N = 10), Cycle 1 Day 1, geometric mean
[3] = 125 mg, multiple once daily oral 125 mg (N = 1), Cycle 1 Day 21
[4] = 125 mg, single oral dose 125 mg (N = 6), Cycle 1 Day 1, geometric mean
[5] = single oral dose 10 mg (N = 3), Cycle 1 Day 1, geometric mean
[6] = single oral dose 20 mg (N = 3), Cycle 1 Day 1, geometric mean
[7] = single oral dose 40 mg (N = 11), Cycle 1 Day 1, geometric mean
[8] = single oral dose 75 mg (N = 10), Cycle 1 Day 1, geometric mean
[9] = single oral dose 125 mg (N = 6), Cycle 1 Day 1, geometric mean
[10] = multiple once daily oral 10 mg (N = 3), Cycle 1 Day 21, geometric mean
[11] = multiple once daily oral 20 mg (N = 3), Cycle 1 Day 21, geometric mean
[12] = multiple once daily oral 40 mg (N = 8), Cycle 1 Day 21, geometric mean
[13] = multiple once daily oral 75 mg (N = 7), Cycle 1 Day 21, geometric mean
[14] = multiple once daily oral 125 mg (N = 1), Cycle 1 Day 21

Compound: CNC(=O)c1ncn2cc(-c3c(F)ccc(NS(=O)(=O)c4cc(Cl)cnc4OC)c3F)ncc12 [HC-7366, 6-(3-((5-chloro-2-methoxypyridine)-3-sulfonamido)-2,6-difluorophenyl)-N-methylimidazo[1,5-a]pyrazine-1-carboxamide]
- AUC(0-t) (40 mg, single oral dose 40 mg (N = 11), Cycle 1 Day 1, geometric mean, read-out: AUC0-24): 52900 ng·h/mL
- AUC(0-t) (40 mg, single oral dose 40 mg (N = 11), Cycle 1 Day 1, geometric mean, read-out: AUC0-last): 52900 ng·h/mL
- Vd/F (40 mg, single oral dose 40 mg (N = 11), Cycle 1 Day 1, geometric mean): 10.5 L
- Tmax (40 mg, single oral dose 40 mg (N = 11), Cycle 1 Day 1, median): 2 h
- Cmax [1]: 14300 ng/mL
- half-life [1]: 17.8 h
- AUC(0-t) (75 mg, multiple once daily oral 75 mg (N = 7), Cycle 1 Day 21, geometric mean, read-out: AUC0-last): 166000 ng·h/mL
- Vd/F [1]: 9.51 L
- Tmax (75 mg, multiple once daily oral 75 mg (N = 7), Cycle 1 Day 21, median): 2 h
- Cmax [2]: 10200 ng/mL
- half-life [2]: 15.2 h
- AUC(0-t) (75 mg, single oral dose 75 mg (N = 10), Cycle 1 Day 1, geometric mean, read-out: AUC0-24): 100000 ng·h/mL
- AUC(0-t) (75 mg, single oral dose 75 mg (N = 10), Cycle 1 Day 1, geometric mean, read-out: AUC0-last): 100000 ng·h/mL
- Vd/F [2]: 11.2 L
- Tmax (75 mg, single oral dose 75 mg (N = 10), Cycle 1 Day 1, median): 2 h
- Cmax [3]: 38200 ng/mL
- half-life [3]: 16.5 h
- AUC(0-t) (125 mg, multiple once daily oral 125 mg (N = 1), Cycle 1 Day 21, read-out: AUC0-last): 260000 ng·h/mL
- Vd/F [3]: 7.4 L
- Cmax [4]: 18800 ng/mL
- half-life [4]: 14 h
- AUC(0-t) (125 mg, single oral dose 125 mg (N = 6), Cycle 1 Day 1, geometric mean, read-out: AUC0-24): 216000 ng·h/mL
- AUC(0-t) (125 mg, single oral dose 125 mg (N = 6), Cycle 1 Day 1, geometric mean, read-out: AUC0-last): 204000 ng·h/mL
- Vd/F [4]: 7.85 L
- Tmax (125 mg, single oral dose 125 mg (N = 6), Cycle 1 Day 1, median): 2 h
- % AUCextrap [5]: 22.7%
- CL/F [5]: 0.508 L/h
- DAUC0-24 [5]: 1510 ng·h/mL/mg
- DAUC0-last [5]: 1510 ng·h/mL/mg
- DAUC0-∞ [5]: 1970 ng·h/mL/mg
- DCmax [5]: 145 ng/mL/mg
- tlast (single oral dose 10 mg (N = 3), Cycle 1 Day 1, median): 24.00 h
- % AUCextrap [6]: 17.9%
- CL/F [6]: 0.544 L/h
- DAUC0-24 [6]: 1440 ng·h/mL/mg
- DAUC0-last [6]: 1440 ng·h/mL/mg
- DAUC0-∞ [6]: 1840 ng·h/mL/mg
- DCmax [6]: 116 ng/mL/mg
- tlast (single oral dose 20 mg (N = 3), Cycle 1 Day 1, median): 24.00 h
- % AUCextrap [7]: 31.0%
- CL/F [7]: 0.491 L/h
- DAUC0-24 [7]: 1320 ng·h/mL/mg
- DAUC0-last [7]: 1320 ng·h/mL/mg
- DAUC0-∞ [7]: 2040 ng·h/mL/mg
- DCmax [7]: 113 ng/mL/mg
- tlast (single oral dose 40 mg (N = 11), Cycle 1 Day 1, median): 24.00 h
- % AUCextrap [8]: 30.2%
- CL/F [8]: 0.508 L/h
- DAUC0-24 [8]: 1340 ng·h/mL/mg
- DAUC0-last [8]: 1340 ng·h/mL/mg
- DAUC0-∞ [8]: 1970 ng·h/mL/mg
- DCmax [8]: 136 ng/mL/mg
- tlast (single oral dose 75 mg (N = 10), Cycle 1 Day 1, median): 24.00 h
- % AUCextrap [9]: 33.6%
- CL/F [9]: 0.390 L/h
- DAUC0-24 [9]: 1730 ng·h/mL/mg
- DAUC0-last [9]: 1630 ng·h/mL/mg
- DAUC0-∞ [9]: 2570 ng·h/mL/mg
- DCmax [9]: 150 ng/mL/mg
- tlast (single oral dose 125 mg (N = 6), Cycle 1 Day 1, median): 24.00 h
- LR [10]: 1.11
- LR [11]: 1.14
- LR [12]: 1.11
- LR [13]: 1.22
- LR [14]: 0.759
- subjects who discontinued treatment due to an AE (of 34 treated subjects, 10 to 125 mg cohorts): 5 subjects
- AUC [10]: 21900 ng·h/mL
- AUC [11]: 41900 ng·h/mL
- AUC [12]: 99300 ng·h/mL
- AUC [13]: 187000 ng·h/mL
- AUC [14]: 401000 ng·h/mL
- AUC(0-inf) [5]: 19700 ng·h/mL
- AUC(0-inf) [6]: 36800 ng·h/mL
- AUC(0-inf) [7]: 81500 ng·h/mL
- AUC(0-inf) [8]: 148000 ng·h/mL
- AUC(0-inf) [9]: 321000 ng·h/mL
